Data set [1] concerns the target T1, GlyRS (Homo sapiens, UniProt P41250).
T1 construct: made in house; host or cells: E. coli BL21(DE3)
T1 sequence (P41250 37-739): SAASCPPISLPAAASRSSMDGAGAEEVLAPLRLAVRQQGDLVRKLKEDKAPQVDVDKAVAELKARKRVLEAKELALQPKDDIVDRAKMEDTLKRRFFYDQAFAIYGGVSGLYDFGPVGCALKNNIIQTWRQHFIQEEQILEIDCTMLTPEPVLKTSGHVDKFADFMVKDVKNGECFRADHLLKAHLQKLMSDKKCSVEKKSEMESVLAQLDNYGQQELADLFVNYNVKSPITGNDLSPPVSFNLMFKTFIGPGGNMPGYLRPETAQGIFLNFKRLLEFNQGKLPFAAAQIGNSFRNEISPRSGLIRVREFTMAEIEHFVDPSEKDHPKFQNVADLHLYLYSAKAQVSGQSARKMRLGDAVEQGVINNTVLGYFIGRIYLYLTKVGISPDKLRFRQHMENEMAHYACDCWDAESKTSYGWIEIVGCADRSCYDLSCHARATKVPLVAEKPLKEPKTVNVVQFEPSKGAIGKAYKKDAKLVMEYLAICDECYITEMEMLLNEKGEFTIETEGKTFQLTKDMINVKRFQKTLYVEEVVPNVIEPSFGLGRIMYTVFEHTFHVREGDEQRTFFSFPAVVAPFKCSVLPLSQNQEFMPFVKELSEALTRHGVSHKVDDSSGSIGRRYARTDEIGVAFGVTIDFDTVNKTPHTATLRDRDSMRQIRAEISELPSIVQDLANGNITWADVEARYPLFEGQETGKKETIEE
In words: Fluorescence-based thermal shift assay (TSA). In kind it is binding. The following applies: shift between Tm of GlyRS with and without compound. The procedure: Thermal shift assays were conducted using a StepOnePlus 7 Flex Real-Time Cycler (Applied Biosystems, Waltham, MA, USA). The Protein Thermal Shift™ Kit dye from Thermo Fisher Scientific was employed to monitor the thermal stability of the protein by binding to its exposed hydrophobic regions. In each well of a 96-well Optical Reaction Plate (Applied Biosystems), a solution containing 14 μL of protein thermal shift buffer, 2 μL of diluted thermal shift dye (8×), 2 μL small molecule solution at 1 mM, and 2 μL of protein at 1 mg/mL was added. The 96-well polymerase chain reaction plates were then placed in the Life Technologies system and incubated at 25 °C for 10 min. Subsequently, the samples were gradually heated from 25 °C to 95 °C at a rate of 1 °C/min. During the thermal denaturation of the protein, the fluorescence signal of SYPRO orange at 490/530 nm excitation/emission wavelengths was recorded by the instrument at 30 s intervals. The fluorescence signal was continuously monitored and plotted against the temperature, with the midpoint of the protein unfolding transition defined as the melting temperature (Tm). To ensure accuracy, triplicate experiments were performed. The ΔTm represents the shift in Tm value between the GlyRS treated with compounds and the blank control.

Data set [2] has as its target T1, GlyRS. In words: Bio-layer interferometry (BLI) binding assay. The following applies: for Kdis / Kon: immobilized GlyRS. The procedure: Binding experiments on the GlyRS proteins with various molecules were conducted using an Octet R8 system (ForteBio, Fremont, CA, USA). Purified His-tagged GlyRS proteins (500 μg/mL) were captured using Ni-NTA biosensors (ForteBio, Fremont, CA, USA), resulting in a saturation response of 4–5 nm after 300 s. Subsequently, the biosensors were immersed in diluted molecules (0.625–20 μM in assay buffer) for 120 s to measure the association signal, followed by transfer into Octet buffer to measure the dissociation signal for 100 s. Reference wells containing buffer instead of the tested compounds were included to correct for baseline shifts. A parallel set of Ni-NTA sensors immersed only in buffer served as negative reference controls to correct for nonspecific binding of the compounds to the biosensor surface. The signals were analyzed by a double reference subtraction protocol to deduce nonspecific and background signals and signal drifts caused by biosensor variability. All assays were performed by a standard protocol in 96-well black plates with a total volume of 200 μL/well at 30 °C. The generated data were analyzed using the Octet® Analysis Studio 12.2.2.26 for correction and curve fitting.

The target of data set [3] is T1, GlyRS. Kind of data set: Enzyme inhibition assay (ATP consumption assay). In kind it is biochemical. Particulars: for IC50: ATP consumption assay, mean ± SD. The procedure: The ATP consumption assay was utilized to assess the enzymatic inhibitory activity of the compounds. The 30 μL reaction mixture consisted of 1 μM GlyRS, 25 μM ATP, 50 μM L-Glycine, 30 mM HEPES pH 7.5, 150 mM NaCl, 30 mM KCl, 40 mM MgCl2, and 0.1% bovine serum albumin (BSA), along with the corresponding concentrations of each compound. The reaction mixture was incubated at room temperature for 15 min. After incubation, 10 μL of the reaction reagent was transferred to a 384-well microplate, and the GlyRS enzyme activity was detected by adding 10 μL of the ATP Assay Kit (#S0026, Beyotime, Shanghai, China). Luminescence measurements were performed using a Synergy HTX multimode microplate Reader (BioTek Inc., Winooski, VT, USA). […]

Data set [4] concerns the target T1, GlyRS. Kind of data set: Limited proteolysis analysis (trypsin, SDS-PAGE). The following applies: trypsin at different concentrations, 1 h at 37 °C, versus unbound GlyRS.
A short description of the next data set: in vitro. Format: cell-based. Particulars: human. The procedure: We then evaluated the antiviral effects of Lycobetaine and Scutellarein. To determine the optimal concentration of the small molecules, we used the CCK-8 assay to evaluate cell viability and estimate the CC50 value of the two drugs in A549 cells. In this experiment, the cells were exposed to varying concentrations of Lycobetaine and Scutellarein, and the CCK-8 reagent was added 24 h after drug treatment.

The test system of data set [5] is A/PuertoRico/8/34 (H1N1) (PR8 virus). In kind it is cell-based, Influenza A virus.
Where [6] appears, read: BLI, immobilized His-tagged GlyRS, mean ± SD, three repeats, read-out: KD.
Where [7] appears, read: 1 μM GlyRS at 20 μM compounds, average of two independent experiments.

Read-outs that look alike come from different tables or passages of the source.

Turning to `Oc1c(I)cc(I)c2cccnc12` [Iodoquinol, reference compound], the “△Tm” value on GlyRS [1] was −11.97 °C. At GlyRS [2] (BLI), the Kdis is reported as 2.23 ± 0.49 (1/s) × 10^−2 and the Kon is on record as 3.10 ± 0.51 (1/MS) × 10^3. For the same molecule, at GlyRS [2] (setting [6]), the dissociation constant (Kd) stood at 7.14 ± 0.41 µM. In addition, the Relative Enzyme Activity on GlyRS [3] (Figure 5K, bars A-J correspond to the compounds of panels A-J) is recorded as 72.0%.
`CC(=O)N[C@@H](C)C(=O)O` [N-Acetyl-L-alanine]: the “△Tm” value at GlyRS [1] stood at 5.96 °C. In addition, at GlyRS [2] (BLI), the Kdis was 560 ± 194 (1/s) × 10^−2 and the Kon is reported as 396.20 ± 85.48 (1/MS) × 10^3. Further, on GlyRS [2] (setting [6]), the dissociation constant (Kd) is 24.9 ± 4.33 µM. At GlyRS [3] (setting [7]), the “Relative Enzyme Activity” value is recorded as 88.1%.
As to `O=c1cc(-c2ccc(O)cc2)oc2cc(O)c(O)c(O)c12` [Scutellarein], the “protein conformation change of GlyRS (distribution of proteolyzed fragments)” value on GlyRS [4] is on record as “did not show significant differences compared to unbounded GlyRS”. The cytotoxic concentration (CC50) at 24 h in “in vitro” was 29.4 ± 0.76 µM. Moreover, the “△Tm” value at GlyRS [1] is −5.3 °C. On GlyRS [2] (BLI), the Kdis was 1.09 ± 0.11 (1/s) × 10^−2 and the Kon was 3.96 ± 1.05 (1/MS) × 10^3. In addition, the Kd on GlyRS [2] (BLI, mean ± SD, three repeats (Table 2), read-out: KD) was found to be 2.88 ± 0.83 µM. For the same molecule, the “Relative Enzyme Activity” value at GlyRS [3] (setting [7]) is 27.3%. The half-maximal inhibitory concentration (IC50) at GlyRS [3] worked out at 2.22 ± 0.19 µM. Further, in data set [5], the “viral infection rate / viral titer” value is listed as “effectively reduced the viral infection rate”.
For `Cc1ccc(S(=O)(=O)NCl)cc1` [Chloramine-T], the “△Tm” value at GlyRS [1] is −5.13 °C. This molecule also came in with a Kd at GlyRS [2] of 15.1 ± 1.8 µM. Further, at GlyRS [2] (BLI), the Kdis is reported as 78.19 ± 17.95 (1/s) × 10^−2 and the Kon is recorded as 52.28 ± 13.31 (1/MS) × 10^3. Moreover, the “Relative Enzyme Activity” value at GlyRS [3] (setting [7]) worked out at 86.9%.
As for `C[C@@H]1C[C@H]2[C@@H]3CCC4=CC(=O)C=C[C@]4(C)[C@@]3(Cl)[C@@H](O)C[C@]2(C)[C@@]1(OC(=O)c1ccco1)C(=O)CCl` [Mometasone furoate, reference compound], the “△Tm” value at GlyRS [1] is −11.58 °C. In addition, the Kon at GlyRS [2] (BLI) is reported as 108.8 ± 67.42 (1/MS) × 10^3. The dissociation constant Kd at GlyRS [2] (setting [6]) stood at 1.82 ± 0.36 µM. Further, the “Relative Enzyme Activity” value at GlyRS [3] (setting [7]) is listed as 91.2%.
Regarding `Oc1cc2c3c(c1)c1cc4c(cc1c[n+]3CC2)OCO4` [Lycobetaine], the “protein conformation change of GlyRS (distribution of proteolyzed fragments)” value on GlyRS [4] is on record as “alters the protein conformation of GlyRS”. Moreover, the CC50 at 24 h in “in vitro” turned out to be 16 ± 0.58 µM. Moreover, the “△Tm” value at GlyRS [1] was −13.01 °C. The Kdis on GlyRS [2] (BLI) was 39.73 ± 11.18 (1/s) × 10^−2. Besides, the equilibrium dissociation constant (Kd) at GlyRS [2] (setting [6]) came to 43.5 ± 16.4 µM. Also, the “Relative Enzyme Activity” value on GlyRS [3] (setting [7]) turned out to be 8.0%. Also, at GlyRS [3], the IC50 turned out to be 0.11 ± 0.05 µM. Besides, the “viral infection rate / viral titer” value in data set [5] was “effectively reduced the viral infection rate”.
`COC[C@H]1C[C@@H](c2nc(-c3ccc4c(c3)COc3cc5c(ccc6nc([C@@H]7CC[C@H](C)N7C(=O)[C@@H](NC(=O)OC)C(C)C)[nH]c65)cc3-4)c[nH]2)N(C(=O)[C@H](NC(=O)OC)c2ccccc2)C1` [Velpatasvir, reference compound]: the “△Tm” value on GlyRS [1] was −5.4 °C. At GlyRS [2] (BLI), the Kdis is listed as 18.46 ± 0.98 (1/s) × 10^−2 and the Kon is 15.80 ± 0.71 (1/MS) × 10^3. Also, the Kd on GlyRS [2] (setting [6]) came out at 11.7 ± 1.13 µM. Further, the “Relative Enzyme Activity” value on GlyRS [3] (setting [7]) is 78.5%.
Consider `CC(C)c1cc2c(c(O)c1O)[C@@]1(C(=O)O)CCCC(C)(C)[C@@H]1CC2` [Carnosic acid], for which the “△Tm” value at GlyRS [1] is −5.9 °C. Also, at GlyRS [2], binding was characterised by a dissociation constant (Kd) of 14.5 ± 0.19 µM. Moreover, on GlyRS [2] (BLI), the Kdis is 1.12 ± 0.17 (1/s) × 10^−2 and the Kon is listed as 1.13 ± 0.26 (1/MS) × 10^3. In addition, at GlyRS [3] (setting [7]), the “Relative Enzyme Activity” value is reported as 75.4%.
On to `Cc1c(OCC(F)(F)F)ccnc1C[S+]([O-])c1nc2ccccc2[nH]1` (centres unmarked) [Lansoprazole, reference compound], for which the “△Tm” value on GlyRS [1] was −5.03 °C. At GlyRS [2] (BLI), the Kdis was 9.25 ± 3.64 (1/s) × 10^−2 and the Kon was 7.23 ± 2.14 (1/MS) × 10^3. Besides, at GlyRS [2] (setting [6]), the dissociation constant (Kd) amounted to 12.5 ± 1.63 µM. Further, the “Relative Enzyme Activity” value on GlyRS [3] (setting [7]) is 72.3%.
`COC(=O)C1=C(C)NC(C)=C(C(=O)OCC(C)C)C1c1ccccc1[N+](=O)[O-]` (centres unmarked) [Nisoldipine, reference compound]: at GlyRS [1], the “△Tm” value was −8.96 °C. In addition, on GlyRS [2] (BLI), the Kdis was 400 ± 94.49 (1/s) × 10^−2 and the Kon is recorded as 86.16 ± 27.50 (1/MS) × 10^3. In addition, the Kd at GlyRS [2] (setting [6]) was 47.7 ± 7.18 µM. In addition, on GlyRS [3] (setting [7]), the “Relative Enzyme Activity” value is 67.3%.
